Laboratory results published in patent US12629394B2, “Atlas of Choroid Plexus cell types and therapeutic and diagnostic uses thereof” (The Broad Institute, Inc., priority 2019, dated 2026).
“Also recorded” adds a separate entry of the source.

Experiments:
[1] = system: CSF-SOD, CSF antioxidant capacity; conditions: despite thiol supplementation (e.g. Leucovorin); cited from earlier work
choroid plexus in vitro = experiment: In vitro incubation of choroid plexus with MTX: ROS, mitochondria, SOD; format: cell-based, rodent
Description: (§1) Optimized assays for evaluating redox homeostasis and oxidative damage to cells, lipids, and DNA and found chemotherapy (MTX)-induced oxidative damage in human neurons in vitro and in rodent brain in vivo, and rodent ChP in vitro and in vivo was performed (FIG. 4; data not shown).

[2] = system: choroid plexus, CSF, brain; experiment: Intravenous MTX in mice: ChP and CSF antioxidants, oxidative damage; format: in vivo, mouse
Description: (§2) AAV2/5-SOD3 or control AAV2/5-GFP was injected into embryonic (E) 13.5 mouse lateral ventricles, and offspring were raised to 4-6 weeks of age. Applicants quantified choroid plexus-SOD3 expression (qRT-PCR), CSF-SOD protein levels (immunoblotting), and CSF-anti-oxidant capacity (ELISA). In parallel, Applicants tested if Methotrexate (MTX) exposure induced signatures of oxidative damage in cultured human cortical neurons (iPSCs), in patient CSF, and in vivo rodent brain. To test if supplemental choroid plexus-SOD3 protects the brain from acute oxidative stress, intravenous MTX was administered to mice previously transduced with AAV2/5-SOD3 or control AAV2/5-GFP, and analyzed cortex, hippocampus, and corpus callosum for markers of oxidative damage 48 hours later.

[3] = system: human iPSC cortical neurons; experiment: MTX exposure of cultured human cortical neurons (iPSCs): oxidative stress and damage; format: cell-based
Description: as §2, §1

[4] = system: CSF-SOD, CSF antioxidant capacity; experiment: Patient CSF after MTX: SOD expression and antioxidant capacity; format: in vivo, human
Description: as §2, §1

choroid plexus, CSF = experiment: Intravenous MTX in rats: ChP and CSF antioxidants; format: in vivo, rat
[5] = mouse, MTX 4 mg/kg i.v., evaluation at 48 hours

In the case of `CN(Cc1cnc2nc(N)nc(N)c2n1)c1ccc(C(=O)N[C@@H](CCC(=O)O)C(=O)O)cc1` [MTX, Methotrexate], the “anti-oxidant capacity of CSF from patients receiving chemotherapeutics” value [1] is given as “reduced anti-oxidant capacity”, the “SOD expression and secretion” value (choroid plexus in vitro; in vitro) is given as “decreases SOD expression and secretion” and the “mitochondrial respiration in choroid plexus” value (choroid plexus in vitro; in vitro) is given as “impairs mitochondrial respiration”. For the same molecule, the “ROS production in ChP” value (choroid plexus in vitro; in vitro incubation) was “inducing ROS production”, the “mitochondrial membrane potential in ChP” value (choroid plexus in vitro; in vitro incubation) was “alters mitochondrial membrane potential” and the “markers of oxidative damage in rodent brain” value ([2]; in vivo rodent brain) was “induced markers of oxidative damage”. For the same molecule, the “antioxidant availability in CSF” value ([2]; mice, intravenous MTX) was “reduced antioxidant availability in CSF”, the “choroid plexus anti-oxidant gene transcription” value ([2]; mice, intravenous MTX) was “decreased choroid plexus anti-oxidant gene transcription” and the “SOD expression in vivo (CSF Sod3, SOD activity)” value [2, 5] was “decreases SOD expression”. The “oxidative damage in vivo (8-OHdG)” value [2, 5] was “increases oxidative damage”, the “oxidative stress in human iPSC cortical neurons” value ([3]; MTX 10 uM) was “triggers oxidative stress” and the “oxidative stress / markers of oxidative damage in cultured human neurons” value ([3]; human iPSC-derived neurons) was “induces oxidative stress; also recorded: induced markers of oxidative damage”. The “CSF-SOD expression levels after vs. before treatment” value ([4]; Primary CNS lymphoma patient, high dose MTX, sample 1B vs. pre-treatment 1A) was “reduced CSF-SOD expression levels”, the “antioxidant capacity of human CSF” value ([4]; human CSF) was “diminishes antioxidant capacity” and the “markers of oxidative damage in patient CSF” value ([4]; patient CSF) was “induced markers of oxidative damage”. The “antioxidant availability in CSF” value (choroid plexus, CSF) was “reduced antioxidant availability in CSF” and the “choroid plexus anti-oxidant gene transcription” value (choroid plexus, CSF) was “decreased choroid plexus anti-oxidant gene transcription”.
